Test results: patent US20040204466A1, “Treatment of bronchial asthma using 5-HT3 receptor antagonists” (Orchid Chemicals and Pharmaceuticals Ltd., priority 2003, published 2004)

Experiments:
Assay type in all cases: in vivo, female Balb/c mice
[1] = system: ovalbumin sensitized and challenged mice; assay: Eosinophils in BAL fluid following methacholine challenge; settings: immediately following methacholine challenge; FIGS. 7 and 8
[2] = system: ovalbumin sensitized and challenged mice; assay: Serum IgE levels; settings: gavage 120 μg/kg twice a day for 10 days; values increased, albeit insignificantly
[3] = system: ovalbumin sensitized and challenged mice; assay: Airway hyperresponsiveness to methacholine (Penh, barometric plethysmography); settings: 24 hours after antigen challenge, increasing doses of methacholine, FIGS. 5 and 6
Protocol: Four to five-week old female Balb/c mice (Harlan Laboratories, Indianapolis, Ind.) were housed according to the NIH guidelines and were allowed constant access to food and water. Intraperitoneal injections of 6 μg of grade V chicken egg ovalbumin (Ova; Sigma-Aldrich, St. Louis, Mo.) adsorbed to 2.25 mg Imject Alum (Pierce, Rockford, Ill.) and dissolved in PBS. Aerosol sensitization with 0.2% ovalbumin (Ova) for 10 minutes using Ultra-Neb 90 nebulizer (DeVilbiss, Somerset, Pa.). Twenty-four hours after antigen challenge, the mice were challenged with increasing does of methacholine and Penh values were recorded by barometric plethysmography.

[4] = system: ovalbumin sensitized and challenged mice; assay: Ova-specific airway resistance of early and late allergic response to antigen challenge; settings: gavage 120 μg/kg twice a day for 10 days
Protocol: Four to five-week old female Balb/c mice (Harlan Laboratories, Indianapolis, Ind.) were housed according to the NIH guidelines and were allowed constant access to food and water. Intraperitoneal injections of 6 μg of grade V chicken egg ovalbumin (Ova; Sigma-Aldrich, St. Louis, Mo.) adsorbed to 2.25 mg Imject Alum (Pierce, Rockford, Ill.) and dissolved in PBS. Aerosol sensitization with 0.2% ovalbumin (Ova) for 10 minutes using Ultra-Neb 90 nebulizer (DeVilbiss, Somerset, Pa.). Ondansetron was administered by gavage in the dose of 120 μg/kg twice a day for 10 days.

Cc1nccn1CC1CCc2c(c3ccccc3n2C)C1=O (centres unmarked) [Ondansetron]
numbers of eosinophil in BAL [1]: significantly descried numbers of eosinophil | mean serum IgE concentrations [2]: unaffected | AHR to methacholine [3]: completely suppressed | Ova-specific airway resistance of the early allergic response (EAR) ([4]; FIG. 1): without EAR protection | Ova-specific airway resistance of the late allergic response (LAR) ([4]; P <0.001, FIG. 2): significant protection during the LAR
